This is an account of results in US8476264B2, “N-(3-(2-amino-6,6-difluoro-4,4A,5,6,7,7A-hexahydro-cyclopenta[E][1,3]oxazin-4-yl)-phenylamides as BACE1 inhibitors” (Hoffmann-La Roche Inc., priority 2011, dated 2013).

Molecules are shown by their SMILES.

T1 sequence (P56817 46-501): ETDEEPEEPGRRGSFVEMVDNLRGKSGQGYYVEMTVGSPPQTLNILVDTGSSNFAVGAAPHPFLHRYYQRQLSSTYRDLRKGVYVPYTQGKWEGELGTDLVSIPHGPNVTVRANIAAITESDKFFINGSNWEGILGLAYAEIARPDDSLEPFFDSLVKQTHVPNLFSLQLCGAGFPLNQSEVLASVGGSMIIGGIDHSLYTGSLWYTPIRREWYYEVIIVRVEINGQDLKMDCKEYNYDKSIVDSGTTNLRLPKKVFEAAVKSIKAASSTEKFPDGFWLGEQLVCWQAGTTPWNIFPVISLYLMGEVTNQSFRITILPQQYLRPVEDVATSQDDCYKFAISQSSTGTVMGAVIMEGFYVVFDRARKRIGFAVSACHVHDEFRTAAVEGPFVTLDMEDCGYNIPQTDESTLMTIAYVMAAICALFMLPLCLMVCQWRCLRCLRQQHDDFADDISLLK

This assay has as its target T1, BACE1 (Homo sapiens, UniProt P56817).
T1 construct: Human HEK293 cells which are stably transfected with a vector expressing a cDNA of the human APP wt gene (APP695); endogenous in cells; host or cells: HEK293 stably transfected with human APP695 wt
The assay is described as follows: Cellular Aβ-lowering assay (Aβ40 ELISA). The class given is cell-based. The following applies: HEK293 cells stably expressing human APP wt (APP695); Aβ40 in supernatant after 18-20 hrs; read-out: BACE1 cell act. Aβ40 IC50. How it is done: Cellular Aβ-Lowering Assay:
Human HEK293 cells which are stably transfected with a vector expressing a cDNA of the human APP wt gene (APP695) were used to assess the potency of the compounds in a cellular assay. The cells were seeded in 96-well microtiter plates in cell culture medium (Iscove, plus 10% (v/v) fetal bovine serum, glutamine, penicillin/streptomycin) to about 80% confluence and the compounds were added at a 10× concentration in 1/10 volume of medium without FCS containing 8% DMSO (final concentration of DMSO was kept at 0.8% v/v). After 18-20 hrs incubation at 37° C. and 5% CO2 in a humidified incubator the culture supernatant was harvested for the determination of Aβ40 concentrations. 96 well ELISA plates (e.g., Nunc MaxiSorb) were coated with monoclonal antibody which specifically recognize the C-terminal end of Aβ40 (Brockhaus et al., NeuroReport 9, 1481-1486; 1998). After blocking of non-specific binding sites with e.g. 1% BSA and washing, the culture supernatants were added in suitable dilutions together with a horseradish peroxidase-coupled Aβ detection antibody (e.g., antibody 4G8, Senetek, Maryland Heights, Mo.) and incubated for 5 to 7 hrs. Subsequently the wells of the microtiter plate were washed extensively with Tris-buffered saline containing 0.05% Tween 20 and the assay was developed with tetramethylbenzidine/H2O2 in citric acid buffer. After stopping the reaction with one volume 1 N H2SO4 the reaction was measured in an ELISA reader at 450 nm wavelength. The concentrations of Aβ in the culture supernatants were calculated from a standard curve obtained with known amounts of pure Aβ peptide.
A general note: ELISA stands for enzyme-linked immunosorbent assay.
As to `COc1cnc(C(=O)Nc2ccc(F)c([C@@]3(CF)N=C(N)O[C@@H]4CC(F)(F)C[C@@H]43)c2)cn1` [Example 30, 5-Methoxy-pyrazine-2-carboxylic acid [(S)-3-((1R,2R)-2-amino-6,6-difluoro-4-fluoromethyl-4,4a,5,6,7,7a-hexahydro-cyclopenta[e][1,3]oxazin-4-yl)-4-fluoro-phenyl]-amide], the IC50 stood at 7.6 nM. Then `CC(F)(F)c1cnc(C(=O)Nc2ccc(F)c([C@@]3(CF)N=C(N)O[C@@H]4CC(F)(F)C[C@@H]43)c2)cn1` [Example 29, 5-(1,1-Difluoro-ethyl)-pyrazine-2-carboxylic acid [(S)-3-((1R,2R)-2-amino-6,6-difluoro-4-fluoromethyl-4,4a,5,6,7,7a-hexahydro-cyclopenta[e][1,3]oxazin-4-yl)-4-fluoro-phenyl]-amide], with 36 nM; and `NC1=N[C@](CF)(c2cc(NC(=O)c3ccc(C(F)(F)F)cn3)ccc2F)[C@H]2CC(F)(F)C[C@H]2O1` [Example 15, 5-Trifluoromethyl-pyridine-2-carboxylic acid [(S)-3-((1R,2R)-2-amino-6,6-difluoro-4-fluoromethyl-4,4a,5,6,7,7a-hexahydro-cyclopenta[e][1,3]oxazin-4-yl)-4-fluoro-phenyl]-amide], with 2.8 nM; and `NC1=N[C@](CF)(c2cc(NC(=O)c3ncc(Cl)cc3Cl)ccc2F)[C@H]2CC(F)(F)C[C@H]2O1` [Example 6, 3,5-Dichloro-pyridine-2-carboxylic acid [(S)-3-((1R,2R)-2-amino-6,6-difluoro-4-fluoromethyl-4,4a,5,6,7,7a-hexahydro-cyclopenta[e][1,3]oxazin-4-yl)-4-fluoro-phenyl]-amide], with 1.7 nM. Under `NC1=N[C@](CF)(c2cc(NC(=O)c3nn(C(F)F)cc3Cl)ccc2F)[C@H]2CC(F)(F)C[C@H]2O1` [Example 35, 4-Chloro-1-difluoromethyl-1H-pyrazole-3-carboxylic acid [(S)-3-((1R,2R)-2-amino-6,6-difluoro-4-fluoromethyl-4,4a,5,6,7,7a-hexahydro-cyclopenta[e][1,3]oxazin-4-yl)-4-fluoro-phenyl]-amide] stands 3 nM. Then `NC1=N[C@](CF)(c2cc(NC(=O)c3ncc(Cl)cn3)ccc2F)[C@H]2CC(F)(F)C[C@H]2O1` [Example 32, 5-Chloro-pyrimidine-2-carboxylic acid [(S)-3-((1R,2R)-2-amino-6,6-difluoro-4-fluoromethyl-4,4a,5,6,7,7a-hexahydro-cyclopenta[e][1,3]oxazin-4-yl)-4-fluoro-phenyl]-amide], with 7.9 nM; and `NC1=N[C@](CF)(c2cc(NC(=O)c3ccc(OCC(F)(F)C(F)(F)F)cn3)ccc2F)[C@H]2CC(F)(F)C[C@H]2O1` [Example 10, 5-(2,2,3,3,3-Pentafluoro-propoxy)-pyridine-2-carboxylic acid [(S)-3-((1R,2R)-2-amino-6,6-difluoro-4-fluoromethyl-4,4a,5,6,7,7a-hexahydro-cyclopenta[e][1,3]oxazin-4-yl)-4-fluoro-phenyl]-amide], with 43 nM; and `NC1=N[C@](CF)(c2cc(NC(=O)c3ccc(OC(F)F)cn3)ccc2F)[C@H]2CC(F)(F)C[C@H]2O1` [Example 13, 5-Difluoromethoxy-pyridine-2-carboxylic acid [(S)-3-((1R,2R)-2-amino-6,6-difluoro-4-fluoromethyl-4,4a,5,6,7,7a-hexahydro-cyclopenta[e][1,3]oxazin-4-yl)-4-fluoro-phenyl]-amide], with 3.5 nM. For the molecule `Cc1nc(C(=O)Nc2ccc(F)c([C@@]3(CF)N=C(N)O[C@@H]4CC(F)(F)C[C@@H]43)c2)co1` [Example 33, 2-Methyl-oxazole-4-carboxylic acid [(S)-3-((1R,2R)-2-amino-6,6-difluoro-4-fluoromethyl-4,4a,5,6,7,7a-hexahydro-cyclopenta[e][1,3]oxazin-4-yl)-4-fluoro-phenyl]-amide], the IC50 turned out to be 4.8 nM. As for `NC1=N[C@](CF)(c2cc(NC(=O)c3ccc(OCC(F)F)cn3)ccc2F)[C@H]2CC(F)(F)C[C@H]2O1` [Example 14, 5-(2,2-Difluoro-ethoxy)-pyridine-2-carboxylic acid [(S)-3-((1R,2R)-2-amino-6,6-difluoro-4-fluoromethyl-4,4a,5,6,7,7a-hexahydro-cyclopenta[e][1,3]oxazin-4-yl)-4-fluoro-phenyl]-amide], the IC50 was found to be 23 nM. Turning to `NC1=N[C@](CF)(c2cc(NC(=O)c3cnc(OCC4CC4)cn3)ccc2F)[C@H]2CC(F)(F)C[C@H]2O1` [Example 25, 5-Cyclopropylmethoxy-pyrazine-2-carboxylic acid [(S)-3-((1R,2R)-2-amino-6,6-difluoro-4-fluoromethyl-4,4a,5,6,7,7a-hexahydro-cyclopenta[e][1,3]oxazin-4-yl)-4-fluoro-phenyl]-amide], the IC50 worked out at 15 nM. As to `NC1=N[C@](CF)(c2cc(NC(=O)c3cnc(OCF)cn3)ccc2F)[C@H]2CC(F)(F)C[C@H]2O1` [Example 26, 5-Fluoromethoxy-pyrazine-2-carboxylic acid [(S)-3-((1R,2R)-2-amino-6,6-difluoro-4-fluoromethyl-4,4a,5,6,7,7a-hexahydro-cyclopenta[e][1,3]oxazin-4-yl)-4-fluoro-phenyl]-amide], the IC50 is 3.5 nM.

In the case of `N#Cc1ccc(C(=O)Nc2ccc(F)c([C@@]3(CF)N=C(N)O[C@]4(CF)CC(F)(F)C[C@@H]43)c2)nc1` [Example 46, 5-Cyano-pyridine-2-carboxylic acid [3-((1R,7aR)-2-(S)-amino-6,6-difluoro-4,7a-bis-fluoromethyl-4,4a,5,6,7,7a-hexahydro-cyclopenta[e][1,3]oxazin-4-yl)-4-fluoro-phenyl]-amide], the IC50 amounted to 27 nM. For the molecule `NC1=N[C@](CF)(c2cc(NC(=O)c3ncc(C(F)(F)F)cn3)ccc2F)[C@H]2CC(F)(F)C[C@H]2O1` [Example 31, 5-Trifluoromethyl-pyrimidine-2-carboxylic acid [(S)-3-((1R,2R)-2-amino-6,6-difluoro-4-fluoromethyl-4,4a,5,6,7,7a-hexahydro-cyclopenta[e][1,3]oxazin-4-yl)-4-fluoro-phenyl]-amide], the IC50 was 36 nM. In the case of `NC1=N[C@@](c2cc(NC(=O)c3cnc(OCF)cn3)ccc2F)(C(F)F)[C@H]2CC(F)(F)C[C@H]2O1` [Example 38, 5-Fluoromethoxy-pyrazine-2-carboxylic acid [(S)-3-((1R,2R)-2-amino-4-difluoromethyl-6,6-difluoro-4,4a,5,6,7,7a-hexahydro-cyclopenta[e][1,3]oxazin-4-yl)-4-fluoro-phenyl]-amide], the IC50 stood at 17 nM. On to `NC1=N[C@](CF)(c2cc(NC(=O)c3ccc(Cl)cn3)ccc2F)[C@H]2CC(F)(F)C[C@H]2O1` [Example 4, 5-Chloro-pyridine-2-carboxylic acid [(S)-3-((1R,2R)-2-amino-6,6-difluoro-4-fluoromethyl-4,4a,5,6,7,7a-hexahydro-cyclopenta[e][1,3]oxazin-4-yl)-4-fluoro-phenyl]-amide], for which the IC50 stood at 2 nM. Then `NC1=N[C@](CF)(c2cc(NC(=O)c3ccc(OCC(F)(F)F)cn3)ccc2F)[C@H]2CC(F)(F)C[C@H]2O1` [Example 9, 5-(2,2,2-Trifluoro-ethoxy)-pyridine-2-carboxylic acid [(S)-3-((1R,2R)-2-amino-6,6-difluoro-4-fluoromethyl-4,4a,5,6,7,7a-hexahydro-cyclopenta[e][1,3]oxazin-4-yl)-4-fluoro-phenyl]-amide], with 17 nM.

As usually defined, the IC50 is the concentration at which inhibition is half-maximal.
